Assays:
Format in all cases: in vivo, swine
[1] = system: LH; assay: Serum LH surge after triptorelin gel (Example 5)
Method: A catheter was inserted non-surgically into the jugular vein (Kraeling et al. 1982) of a subpopulation of gilts in each treatment group (vehicle gel, n=8; 100 mcg triptorelin, n=6; 200 mcg triptorelin, n=7 and 400 mcg triptorelin, n=6). Ten mL blood samples were collected every 15 minutes for one hour prior to treatment, immediately following treatment (0) and at 0.5, 1, 2, 4, 6, 12, 18, 24, 36 and 48 hours after treatment. Blood samples were maintained at 4° C. until centrifuged at 800 x g for 15 minutes within 12 hours of collection. The resulting serum was stored frozen until assayed for LH using validated procedures for pig serum (Kesner et al., 1987 and Kraeling et al., 1982). Onset, duration, and magnitude of the LH surge were analyzed. The LH data were analyzed with the General Linear Models procedure of SAS. Differences between treatments were tested on least squares means estimates using the T test at P<0.05. Onset of the LH surge is when serum LH concentration is greater than or equal to two standard deviations of the mean of the pre-treatment serum LH concentrations. Duration of the LH surge is the period between onset and when serum LH concentration is again less than or equal to two standard deviations of the mean of the pre-treatment serum LH concentrations. Magnitude of the LH surge is the maximum serum LH concentration reached during the LH surge.

[2] = system: gilts; assay: Estrus observation, triptorelin gel dose study (Example 5); details: raw average, PTK 2-07
Method: (§1) All gilts were individually fed MATRIX® as a top-dress for 14 or 15 days at the recommended rate of 15 mg/gilt/day. Gilts were withdrawn from MATRIX® feeding (last top-dress in the morning on Day 0) and allocated to each of the following treatments. Controls were vehicle gel treated (vehicle gel without triptorelin) at 120 (+/−2) hours following MATRIX® withdrawal (last top dress). The other gilts were given 100, 200 or 400 mcg triptorelin as the acetate in a methylcellulose gel formulation 120 (+/−2) hours following MATRIX® withdrawal. The four treatments were: • 1. Vehicle gel (VG): vehicle gel without triptorelin at 120 (+/−2) hours after MATRIX® withdrawal. • 2. TG 100: 100 mcg (2 mL 50 mcg/mL) triptorelin gel at 120 (+/−2) hours after MATRIX® withdrawal. • 3. TG 200: 200 mcg (2 mL 100 mcg/mL) triptorelin gel at 120 (+/−2) hours after MATRIX® withdrawal. • 4. TG 400: 400 mcg (2 mL 200 mcg/mL) triptorelin gel at 120 (+/−2) hours after MATRIX® withdrawal.
For post-treatment estrus detection, gilts were housed in individual pens. Boars were housed in separate rooms, and/or at least 12 m away and downwind. To elicit signs of estrus, a mature boar was walked slowly in the alley in front of the gilts' crates, exposing each test gilt to visual, auditory and olfactory signals from the boar for up to 5 minutes. […]

[3] = system: gilts; assay: Ovulation monitoring by transrectal ultrasonography, triptorelin gel dose 100-400 mcg at 120 h post-MATRIX (Example 5); details: for % of Sows Ovulating: raw average, PTK 2-07
Method: as §1
Ovulation was monitored twice on Day 5 (8 hours and 16 hours post-treatment) and every 8 hours on Day 6 and Day 7 or until ovulation was confirmed or 176 hours following last MATRIX® feeding. The ovulatory status of all gilts was monitored by transrectal ultrasonography. An Aloka 500 ultrasound machine is used for this purpose, with a 7.5 MHz linear array transducer attached to a fixed-angle PVC stabilizing rod to facilitate insertion into the rectum. The transducer and PVC rod are coated with a gynecological lubricant and gently inserted into the rectum until the ovaries can be visualized, one at a time. The diameters of the three largest follicles were recorded (to the nearest 0.1 mm) at each scanning. A gilt was declared to have ovulated when the number of large follicles (≧6.5 mm) fell to less than 3.
(§2) A single 2 mL dose of triptorelin gel or vehicle gel was deposited within approximately 1-2 cm posterior to the cervix with a catheter similar to those used for artificial insemination. The dose was delivered using a standard multi-dose applicator attached to the catheter. A new disposable sheath, which surrounds the catheter, was used for each gilt.

[4] = system: gilts; assay: Estrus observation after triptorelin gel (Example 1); details: raw average, PTK 1-07 (rep 3); 200 mcg T at 120 h post-MATRIX
Method: All gilts were individually fed MATRIX® as a top-dress for 14 days at the recommended rate of 15 mg/gilt/day. Gilts were withdrawn from MATRIX® feeding (last top feed in the morning on Day 0) and allotted to treatments. Controls were treated with a 1.2% methylcellulose gel formulation without triptorelin at 96 hours following MATRIX® withdrawal (last top-dress). The remaining gilts received 200 mcg triptorelin, as the acetate, in a 1.2% methylcellulose gel formulation intravaginally at various times after MATRIX® withdrawal. The four treatments were: 1) vehicle gel (VG) treatment at 96 hours after MATRIX® withdrawal, 2) triptorelin gel (TG) treatment at 96 hours after MATRIX® withdrawal, 3) TG treatment at 120 hours after MATRIX® withdrawal and 4) TG treatment at 144 hours after MATRIX® withdrawal. All gilts were monitored for their estrous and ovulatory status as described below. Gilts included in replicate 1 were selected from terminal line commercial production gilts located in grow/finish barns. Sexual maturity, as indicated by one or more estrous periods, was not verified prior to the start of MATRIX® feeding. Gilts included in replicate 2 were selected from a maternal line gilt population. Sexual maturity was verified by at least one estrous period verified and recorded prior to starting MATRIX® feeding. […]
Data were analyzed using the Mixed Models procedures of SAS. […]

[5] = system: gilts; assay: Ovulation monitoring by transrectal ultrasonography after triptorelin gel at 96, 120 or 144 h post-MATRIX (Example 1); details: raw average, PTK 1-07 (rep 3), 200 mcg T at 120 h post-MATRIX
Method: All gilts were individually fed MATRIX® as a top-dress for 14 days at the recommended rate of 15 mg/gilt/day. Gilts were withdrawn from MATRIX® feeding (last top feed in the morning on Day 0) and allotted to treatments. Controls were treated with a 1.2% methylcellulose gel formulation without triptorelin at 96 hours following MATRIX® withdrawal (last top-dress). The remaining gilts received 200 mcg triptorelin, as the acetate, in a 1.2% methylcellulose gel formulation intravaginally at various times after MATRIX® withdrawal. The four treatments were: 1) vehicle gel (VG) treatment at 96 hours after MATRIX® withdrawal, 2) triptorelin gel (TG) treatment at 96 hours after MATRIX® withdrawal, 3) TG treatment at 120 hours after MATRIX® withdrawal and 4) TG treatment at 144 hours after MATRIX® withdrawal. All gilts were monitored for their estrous and ovulatory status as described below. Gilts included in replicate 1 were selected from terminal line commercial production gilts located in grow/finish barns. Sexual maturity, as indicated by one or more estrous periods, was not verified prior to the start of MATRIX® feeding. Gilts included in replicate 2 were selected from a maternal line gilt population. Sexual maturity was verified by at least one estrous period verified and recorded prior to starting MATRIX® feeding.
The ovulatory status of all gilts was monitored by transrectal ultrasonography. For replicate one, ovulation was monitored two times on Day 5, then three times a day from Day 6 to Day 8. For replicate two, ovulation was monitored three times a day from Day 5 to Day 8. An Aloka 500 ultrasound machine with a 7.5 MHz linear array transducer attached to a fixed-angle PVC stabilizing rod to facilitate insertion into the rectum was used for this purpose. The transducer and PVC rod were coated with a gynecological lubricant and gently inserted into the rectum until the ovaries were visualized, one at a time. The diameters of the three largest follicles were recorded (to the nearest 0.1 mm) at each scanning. A gilt was declared to have ovulated when the number of large follicles (≧6.5 mm) fell to less than 3.
as §2
Data were analyzed using the Mixed Models procedures of SAS. Models included main effects of time of treatment following the last feeding of MATRIX®, replicate, and treatment by replicate interaction. Differences between treatments were tested on least squares means estimates using the T test at P <0.05. Data for analysis were tested for assumptions of data normality.

[6] = 200 mcg T in gel at 120 h post-MATRIX, relative to time of treatment, one gilt with surge

CC(C)C[C@H](NC(=O)[C@@H](Cc1c[nH]c2ccccc12)NC(=O)[C@H](Cc1ccc(O)cc1)NC(=O)[C@H](CO)NC(=O)[C@H](Cc1c[nH]c2ccccc12)NC(=O)[C@H](Cc1c[nH]cn1)NC(=O)[C@@H]1CCC(=O)N1)C(=O)N[C@@H](CCCNC(=N)N)C(=O)N1CCC[C@H]1C(=O)NCC(N)=O [T, pGlu-His-Trp-Ser-Tyr-D-Trp-Leu-Arg-Pro-Gly-NH2]
Gilts, which displayed a LH surge ([1]; 100 mcg T in gel at 120 h post-MATRIX, number of n = 6 catheterized gilts): 4 | Onset of LH surge ([1]; 100 mcg T in gel at 120 h post-MATRIX, relative to time of treatment, LS mean ± SE): 4 ± 3 | Gilts, which displayed a LH surge ([1]; 200 mcg T in gel at 120 h post-MATRIX, number of n = 7 catheterized gilts): 1 | Duration of LH surge ([1]; 200 mcg T in gel at 120 h post-MATRIX, one gilt with surge): 18 | Onset of LH surge [1, 6]: 0.5 | Time of maximum LH conc. [1, 6]: 4 h | Gilts, which displayed a LH surge ([1]; 400 mcg T in gel at 120 h post-MATRIX, number of n = 6 catheterized gilts): 5 | Onset of LH surge ([1]; 400 mcg T in gel at 120 h post-MATRIX, relative to time of treatment, LS mean ± SE): 4 ± 4 | Estrous Expression (%) ([2]; 100 mcg T at 120 h post-MATRIX): 75.0% | Estrous Expression (%) ([2]; 200 mcg T at 120 h post-MATRIX): 81.0% | Percentage ovulated by 48 hours ([3]; 100 mcg T in gel at 120 h post-MATRIX, catheterized subpopulation n = 6): 100% | Percentage ovulated by 48 hours ([3]; 200 mcg T in gel at 120 h post-MATRIX, catheterized subpopulation n = 7): 100% | Percentage ovulated by 48 hours ([3]; 400 mcg T in gel at 120 h post-MATRIX, catheterized subpopulation n = 6): 100% | % of Sows Ovulating ([3]; 100 mcg T at 120 h post-MATRIX, 128 h post-MATRIX (8 h post-T)): 0.0% | % of Sows Ovulating ([3]; 100 mcg T at 120 h post-MATRIX, 136 h post-MATRIX (16 h post-T)): 5.0% | % of Sows Ovulating ([3]; 100 mcg T at 120 h post-MATRIX, 144 h post-MATRIX (24 h post-T)): 20.0% | % of Sows Ovulating ([3]; 100 mcg T at 120 h post-MATRIX, 152 h post-MATRIX (32 h post-T)): 30.0% | % of Sows Ovulating ([3]; 100 mcg T at 120 h post-MATRIX, 160 h post-MATRIX (40 h post-T)): 60.0% | % of Sows Ovulating ([3]; 100 mcg T at 120 h post-MATRIX, 168 h post-MATRIX (48 h post-T)): 95.0% | % of Sows Ovulating ([3]; 100 mcg T at 120 h post-MATRIX, 176 h post-MATRIX (56 h post-T)): 100.0% | % of Sows Ovulating ([3]; 200 mcg T at 120 h post-MATRIX, 128 h post-MATRIX (8 h post-T)): 0.0% | % of Sows Ovulating ([3]; 200 mcg T at 120 h post-MATRIX, 136 h post-MATRIX (16 h post-T)): 0.0% | % of Sows Ovulating ([3]; 400 mcg T at 120 h post-MATRIX, 128 h post-MATRIX (8 h post-T)): 4.5% | % of Sows Ovulating ([3]; 400 mcg T at 120 h post-MATRIX, 136 h post-MATRIX (16 h post-T)): 9.1% | % of Sows Ovulating ([3]; 400 mcg T at 120 h post-MATRIX, 168 h post-MATRIX (48 h post-T)): 100.0% | % of Sows Ovulating ([3]; 400 mcg T at 120 h post-MATRIX, 176 h post-MATRIX (56 h post-T)): 100.0% | Estrous Expression (%) [4]: 100.0% | % of Sows Ovulating ([5]; 128 h post-MATRIX (8 h post-T)): 0.0% | % of Sows Ovulating ([5]; 136 h post-MATRIX (16 h post-T)): 10.0% | % of Sows Ovulating ([5]; 144 h post-MATRIX (24 h post-T)): 30.0% | % of Sows Ovulating ([5]; 152 h post-MATRIX (32 h post-T)): 70.0% | % of Sows Ovulating ([5]; 160 h post-MATRIX (40 h post-T)): 80.0% | % of Sows Ovulating ([5]; 168 h post-MATRIX (48 h post-T)): 90.0% | % of Sows Ovulating ([5]; 176 h post-MATRIX (56 h post-T)): 100.0%
